Data reported in BigSolDB 2.1.

C[C@@H]1CC[C@H]2[C@@H](C)C(=O)O[C@@H]3O[C@@]4(C)CC[C@@H]1[C@]32OO4
solubility (mole fraction)
Details | 283.15 K | 288.15 K | 293.15 K | 298.15 K | 303.15 K | 308.15 K | 313.15 K | 318.15 K | 323.15 K
in acetone | 0.00388 | 0.0051 | 0.00673 | 0.00863 | 0.0114 | 0.0145 | 0.0181 | 0.0223 | 0.0278
in acetonitrile | 0.000198 | 0.000257 | 0.000356 | 0.000518 | 0.000723 | 0.00103 | 0.00143 | 0.00196 | 0.0027
in chloroform | 0.0487 | 0.0613 | 0.0795 | 0.101 | 0.127 | 0.157 | 0.193 | 0.236 | 0.287
in cyclohexane | 0.00044 | 0.000585 | 0.000745 | 0.00106 | 0.00137 | 0.00171 | 0.00209 | 0.00265 | 0.00341
in ethyl acetate | 0.00525 | 0.00786 | 0.0117 | 0.0153 | 0.0205 | 0.0282 | 0.0377 | 0.0499 | 0.0657
in methanol | 0.000559 | 0.000773 | 0.00111 | 0.00145 | 0.00195 | 0.00267 | 0.00375 | 0.00477 | 0.00622
in toluene | 0.0375 | 0.0435 | 0.052 | 0.0603 | 0.0711 | 0.0815 | 0.0937 | 0.107 | 0.122
